Assay: Human HepG2 cell viability assay in 384 well format
Assay type: toxicity, cell-based
Design: dose 125 nL, time 70.5 hour; concentration not given beside the values
Settings: HepG2 cells, read-out: Inhibition

Compound	cytotoxicity at 70.5 h [%]
CC(=O)NCCc1nc(C(C)C)nn1-c1ccncc1C	-14.7
CCC(C)N(Cc1ccc(C)cc1)Cc1c[nH]c(C)n1 (stereo not drawn)	-5.02
Cn1ccnc1CN1CCN(Cc2ccncc2)[C@@H]2CS(=O)(=O)C[C@@H]21	-13.6
CCN(CC)C(CNC(=O)c1ccnc(N(C)C)c1)c1ccsc1 (stereo not drawn)	-5.28
CC(Cn1cccn1)NC(=O)N1CCN(Cc2ccco2)CC1 (stereo not drawn)	0.805
CC(C)Cc1cc(C(=O)NCCc2ccc(S(C)(=O)=O)cc2)[nH]n1	-7.03
Cc1nccc(C2CN(C(=O)c3cncnc3)C2)n1	-13.8
c1ccc(-c2cnc(CN(Cc3cccnc3)CC3CCCO3)o2)cc1 (stereo not drawn)	-7.3
CCc1ncnc(N2CCOCC2CCO)c1F (stereo not drawn)	-2.27
CN1CCCC1CCn1ccnc1-c1nc(-c2ccccc2)no1 (stereo not drawn)	16.5
COc1ccc(N2CCN(C(=O)NC(C)c3nncn3C)CC2)cc1 (stereo not drawn)	-3.61
c1cncc(N2CC[C@@H]3CN(CC4CC4)C[C@@H]3C2)c1	-26.1
O=C(O)COc1ccccc1CN1CCCC1c1cnccn1 (stereo not drawn)	-9.06
CC(C)n1ccnc1CN1CCCN(C(=O)CN(C)C2CC2)CC1	-5.01
NS(=O)(=O)CCNC(=O)c1nnn(-c2ccccc2)c1C1CC1	-2.47
O=C(c1ccc(F)cc1F)N1C[C@@H](O)[C@H](N2CCOCC2)C1	-2.76
Cc1oc(-c2ccco2)nc1CC(=O)N1CCN(CC(C)(C)O)CC1	-17.8
CC(CN(C)Cc1cccc(-n2cccn2)c1)C(F)(F)F (stereo not drawn)	-1.16
CCC(C)N(Cc1cccnc1)Cc1cc2c(cc1OC)OCO2 (stereo not drawn)	0.778
Cc1ccc(CN2CCc3onc(C(=O)NC(C)C)c3C2)o1	-8.41

Compound	cytotoxicity at 70.5 h [%]
Cc1cc(NC(=O)CN2CCc3c(nc(C(C)C)n3C)C2)on1	-14.3
CCc1cc(=O)[nH]c2nnc(SCC(=O)OC)n12	9.93
O=C(c1cnc2ccccc2c1)N1CCCC(O)(CN2CCCC2)C1 (stereo not drawn)	-0.693
CCC(=O)N1CCC(c2nc3ccc(NC(C)C)cn3n2)CC1	4.46
CN1CC2(CCN(Cc3cccnc3)CC2)c2cccc(F)c21	-2.73
O=C(Cc1ccccn1)N1CCc2nc(-c3cnccn3)nc(O)c2C1	-4.01
Cc1cccnc1CN1CC[C@H](Oc2cccc(F)c2)[C@@](C)(O)C1	-0.828
CCCc1n[nH]c(C2CN(C(=O)CCn3nc(C)cc3C)CCO2)n1 (stereo not drawn)	0.729
COc1ccc(CN(C(=O)C2CCCS2)c2ccncc2)cc1 (stereo not drawn)	-8.12
O=C(COc1ccccc1NCc1ccoc1)N1CCOCC1	-18.1
COCC(=O)N1CCCC2(CCN(c3ccsc3)C2=O)C1 (stereo not drawn)	32.8
CN1CCN(C(=O)[C@H]2CC[C@@H]3[C@@H](CCN3Cc3ccsc3)O2)CC1	-6.96
Fc1cccc(-c2nc(CN3CCOC(Cn4cccn4)C3)co2)c1 (stereo not drawn)	-11.5
CCCc1noc(CCC(=O)N2CCCC2c2ccsc2)n1 (stereo not drawn)	-16.1
CS(=O)(=O)NC1CCN(C(=O)NCCc2ccccc2F)CC1	-5.64
CN1CCCC1CNC(=O)c1nnn(-c2ccc(F)cc2)c1C1CC1 (stereo not drawn)	22.3
CC1CCN(CCNC(=O)c2sccc2C2CC2)CC1	-5.27
Cc1cccc(-c2nc(CNC3CCc4ncnn4C3)no2)c1 (stereo not drawn)	-4.91
COc1cc(C#N)ccc1OC12CCCN(CC1)C2 (stereo not drawn)	-8.26
CCCNC(=O)CSc1nnc2[nH]c(=O)cc(CC)n12	11.1

Compound	cytotoxicity at 70.5 h [%]
CNc1nc(C(=O)N2C[C@@H]3CCN(C)[C@@H]3C2)cs1	-3.23
CCn1ncc2c1CCCC2NCc1csc(C(C)C)n1 (stereo not drawn)	0.0472
CS(=O)(=O)N(Cc1ccon1)c1ccc(F)cc1	-2.76
COc1ccc(C)cc1C(=O)N1CCCC(n2nc(C)nc2C)C1 (stereo not drawn)	-8.26
CC1CNC(=O)CCN1Cc1cc(O)c2cccc(F)c2n1 (stereo not drawn)	-6.4
C=Cc1ccc(C(=O)NC2CCCc3nc(N(C)C)ncc32)cc1 (stereo not drawn)	16.1
COC1CCCN(C2CCN(c3cccc(-c4csc(C)n4)c3)CC2)C1 (stereo not drawn)	-1.69
CC(CC(=O)NCCNS(C)(=O)=O)C1CCCCC1 (stereo not drawn)	-13.2
O=C1CC[C@]2(CC[C@@H](NCc3cccnc3)CC2)N1Cc1ccccc1	-11.6
Cc1ccc(CN2CCN(c3ncccc3C(N)=O)CC2CCO)cc1 (stereo not drawn)	-2.3
Cc1nc(CN2CCC3(CCCN(C(=O)c4cnccn4)C3)C2)cs1 (stereo not drawn)	-2.34
CN(C)c1cc(C(=O)NCc2cccnc2-n2cncn2)ccn1	-16.1
CNC(=O)C1(CCCc2ccncc2)CCCN1 (stereo not drawn)	-7.77
Cc1nc(C)c(S(=O)(=O)NC(=O)c2sccc2C)s1	-14.3
CC(C)(NCC(=O)NCCC#N)c1ccc2c(c1)OCCO2	-10.6
CCOCC(=O)NC(C)c1cc(C)ccc1C (stereo not drawn)	12.7
Cc1nn(C)c(C)c1C1CCCN1C(=O)c1ccc2nnc(C)n2c1 (stereo not drawn)	-2.36
Cn1cc(CN2CCC(c3[nH]ncc3S(C)(=O)=O)C2)cn1 (stereo not drawn)	-2.27
